According to patent US6540792B1, “Cellulose fiber-containing structure” (priority 1999, dated 2003):

Assay: Inorganic value/organic value ratio calculated by the organic concept (Fujita)
Conditions: concluded from the inorganic value/organic value ratio
Source text: The “inorganic value/organic value ratio” in this invention is an indicator contrived by Minoru Fujita, to express the polarity of various organic compounds in view of organic concept [see Revised Edition, Science of Chemical Experiments, Organic Chemistry, Kawade shobo (1971)]. For the ratio, the organic value of one carbon (C) atom is decided as 20, and the inorganic and organic values of various polar groups are decided in reference to it, as shown in Table 1. The inorganic value/organic value ratio refers to the ratio of the sum of inorganic values to the sum of organic values.
According to this organic concept, for example, the inorganic value/organic value ratio of polyethylene terephthalate can be calculated as 0.7. In this invention, attention is paid to the affinity between synthetic fibers and an antimicrobial agent based on the value calculated according to the organic concept, and an antimicrobial agent with the inorganic value/organic value ratio kept in a predetermined range is caused to adhere to or to be exhausted and diffused into the synthetic fibers.
For example, in the case of 2,3,5,6-tetrachloro-4-hydroxypyridine, since it has one benzene nucleus, four —Cl groups, one —OH group and one —NR2 group, the inorganic value is 265. On the other hand, since it has five C (carbon) atoms and four —Cl groups, the organic value is 180. […]

SMILES: [Na+].[O-][n+]1ccccc1[S-] [2-pyridylthiol-1-oxide sodium]
- affinity to polyesters: poor
